Earlier results, collected in patent publication US20230149278A1, “METHOD FOR DYEING KERATIN MATERIAL, COMPRISING THE USE OF AN ORGANOSILICON COMPOUND, A POLYSACCHARIDE, A COLORING COMPOUND AND A POST-TREATMENT AGENT” (Henkel AG & Co. KGaA, priority 2020, published 2023).

Conditions: water at 25° C.

For O=C(O)C1=NN(c2ccc(S(=O)(=O)O)cc2)C(=O)C1N=Nc1ccc(S(=O)(=O)O)cc1 (stereo not drawn) [Acid Yellow 23, 4,5-dihydro-5-oxo-1-(4-sulfophenyl)-4-((4-sulfophenyl)azo)-1H-pyrazole-3-carboxylic acid], which “solubility in water (in words)” value is on record?
Its value is “readily soluble”.

Same assay, conditions: water, 25° C.

Which solubility in water does the source give for CCN(Cc1cccc(S(=O)(=O)[O-])c1)c1ccc(C(=C2C=CC(=[N+](CC)Cc3cccc(S(=O)(=O)[O-])c3)C=C2)c2ccccc2S(=O)(=O)[O-])cc1.[Na+].[Na+] [Acid Blue 9] here?
The solubility in water was “more than 20 wt. %”.

For O=S(=O)([O-])c1ccc(N=Nc2c(O)ccc3ccccc23)cc1.[Na+] [Acid Orange 7, sodium salt of 4-[(2-hydroxy-1-naphthyl)azo]benzene sulfonate], which solubility in water is on record?
Its solubility in water is “more than 7 g/L”.

Which solubility in water does the source give for Nc1cc(S(=O)(=O)[O-])cc2cc(S(=O)(=O)[O-])c(N=Nc3ccccc3)c(O)c12.[Na+].[Na+] [Acid Red 33, disodium salt of 5-amino-4-hydroxy-3-(phenylazo)-naphthalene-2,7-disulphonate] here?
The solubility in water was 2,5 g/L.

For O=C([O-])c1c(Cl)c(Cl)c(Cl)c(Cl)c1-c1c2c(Br)cc(=O)c(Br)c-2oc2c(Br)c(O)cc(Br)c12.O=C([O-])c1c(Cl)c(Cl)c(Cl)c(Cl)c1-c1c2c(Br)cc(=O)c(Br)c-2oc2c(Br)c(O)cc(Br)c12.[Na+].[Na+] [Acid Red 92, disodium salt of 3,4,5,6-tetrachloro-2-(1,4,5,8-tetrabromo-6-hydroxy-3-oxoxanthen-9-yl)benzoic acid], which solubility in water is on record?
Its solubility in water is “greater than 10 g/L”.

With “mixture of the sodium salts of mono- and disulfonic acids of 2-(2-quinolyl)-1H-indene-1,3(2H)-dione [Acid Yellow 3]” as the compound, how does the solubility in water read?
The solubility in water was 20 g/L.
